Results on 41 compounds are retold here after patent publication US12421220B2, “Bicyclic-substituted glutarimide cereblon binders” (C4 THERAPEUTICS, INC., priority 2022, dated 2025).

Like-named read-outs stand apart in the source and are kept apart here.

The target in the test is CRBN-DDB1 (CRBN_DDB1.3) (Homo sapiens, UniProt Q96SW2). Briefly: Fluorescence polarization (FP) binding assay, CRBN_DDB1.3 construct. The conditions noted are these: 0.05% PA, 0.1% BSA. How it is done:
Example 2: Fluorescence Polarization (FP) Assay for Screening Compound Ligand Binders of CRBN-DDB1
Measuring compound ligand binding to CRBN-DDB 1 was carried out using an established sensitive and quantitative in vitro fluorescence polarization (FP) based binding assay. (See, I. J. Enyedy et al, J. Med. Chem., 44: […] [2001]). Compounds were dispensed from serially diluted DMSO stock into black 384-well compatible fluorescence polarization plates using an Echo acoustic dispenser. Compound binding to CRBN-DDB 1 was measured by displacement of an established CRBN binding ligand conjugated to an Alexa Fluor® dye (probe). A […] mixture containing 10nM CRBN-DDB1 and 5 nM probe in 50 mM Hepes, pH 7.4, 200 mM NaCl, 1% DMSO, 0.1% BSA and 0.05% o pluronic acid-127 acid was added to wells containing compound and incubated at room temperature for 60 min. Matching control wells excluding CRBN-DDB 1 were used to correct for background fluorescence. Plates were read on an Envision plate reader with appropriate FP filter sets. The corrected S (perpendicular) and P (parallel) values were used to calculate fluorescence polarization (FP) with the following equation: FP=1000*(S−G*P)/(S+G*P).
The fractional amount of bound probe (FB) to CRBN-DDB 1 as a function of compound concentration was fitted according to Wang; FEBS Letters 360, (1995), 111-114 to obtain fits for parameter offsets and binding constant (KA) of competitor compound.
In general terms: Fluorescence polarisation rises when a labelled molecule tumbles more slowly, as on binding a larger partner.

The mark [1] stands for this setting: indoline binders, read-out: FP CRBN_DDB1.3 0.05% PA, 0.1% BSA ka nM.
The mark [2] stands for this setting: tetrahydroquinoline binders, read-out: FP CRBN_DDB1.3 0.05% PA, 0.1% BSA ka nM.
Setting [3] is: benzomorpholine binders, read-out: FP CRBN_DDB1.3 0.05% PA, 0.1% BSA Ka nM.

Sequence of CRBN-DDB1 (CRBN_DDB1.3) (Q96SW2 318-426 limits assumed): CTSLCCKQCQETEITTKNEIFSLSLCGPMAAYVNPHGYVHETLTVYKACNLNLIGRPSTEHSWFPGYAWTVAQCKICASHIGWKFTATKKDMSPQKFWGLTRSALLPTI

With `O=C1CCC(N2CCc3c(N4CCC(CCO)CC4)cccc32)C(=O)N1` (racemic) [Compound 42-4, 3-[4-[4-(2-hydroxyethyl)-1-piperidyl]indolin-1-yl]piperidine-2,6-dione], the Kd under setting [1] was under 100000 nM.

With `CC(C)(C)OC(=O)N1CCC(c2ccc3c(c2)CCN3[C@H]2CCC(=O)NC2=O)CC1` (single isomer, unassigned) [Compound 40-6], the Kd under setting [1] was under 100000 nM.

`O=C1CC[C@H](N2CCc3c(N4CCC(CO)CC4)cccc32)C(=O)N1` (single isomer, unassigned) [Compound 53-5]: the Kd under setting [1] was under 1000 nM.

Turning to `CN(C(=O)OC(C)(C)C)C1CCN(c2cccc3c2CCCN3[C@@H]2CCC(=O)NC2=O)CC1` (single isomer, unassigned) [Compound 61-6], the Kd under setting [2] is under 1000 nM.

For `CC(C)(C)OC(=O)C1CCN(c2cccc3c2CCN3[C@H]2CCC(=O)NC2=O)CC1` (single isomer, unassigned) [Compound 48-6], the Kd under setting [1] is under 100000 nM.

For the compound `CN(C(=O)OC(C)(C)C)C1CCN(c2cccc3c2OCCN3[C@@H]2CCC(=O)NC2=O)CC1` (single isomer, unassigned) [Compound 16-7], the Kd under setting [3] is at most 1000 nM.

Take `CC(C)(C)OC(=O)C1CCN(Cc2cccc3c2CCN3[C@@H]2CCC(=O)NC2=O)CC1` (single isomer, unassigned) [Compound 54-7]: under setting [1], the Kd was under 100000 nM.

`CN(C(=O)OC(C)(C)C)C1CCN(c2cccc3c2CCCN3[C@H]2CCC(=O)NC2=O)CC1` (single isomer, unassigned) [Compound 61-5]: the Kd under setting [2] is under 100000 nM.

As to `O=C1CCC(N2CCOc3c([C@H]4CCCNC4)cccc32)C(=O)N1` (stereo partly drawn) [Compound 13-8, 3-[8-[(3R)-3-piperidyl]-2,3-dihydro-1,4-benzoxazin-4-yl]piperidine-2,6-dione], under setting [3], the Kd was at most 100000 nM.

With `O=C1CC[C@@H](N2CCCc3c(N4CCC(CCO)CC4)cccc32)C(=O)N1` (single isomer, unassigned) [Compound 66-5], the Kd under setting [2] was under 100000 nM.

Turning to `CC(C)(C)OC(=O)N1CC[C@@H]2CN(c3cccc4c3CCN4[C@@H]3CCC(=O)NC3=O)CC[C@@H]21` (single isomer, unassigned) [Compound 59-9b], the Kd under setting [1] was under 1000 nM.

On to `CC(C)(C)OC(=O)CC1CCN(c2cccc3c2CCN3[C@H]2CCC(=O)NC2=O)CC1` (single isomer, unassigned) [Compound 39-5], for which the Kd under setting [1] is under 100000 nM.

As to `CC(C)(C)OC(=O)CC1CCN(c2cccc3c2CCN3[C@@H]2CCC(=O)NC2=O)CC1` (single isomer, unassigned) [Compound 39-6], under setting [1], the Kd is under 1000 nM.

Consider `CC(C)(C)OC(=O)N1CCC(c2ccc3c(c2)CCN3[C@@H]2CCC(=O)NC2=O)CC1` (single isomer, unassigned) [Compound 40-5], for which, under setting [1], the Kd is under 1000 nM.

Consider `CNC1CCN(c2cccc3c2O[C@H](C)CN3C2CCC(=O)NC2=O)CC1` (stereo partly drawn) [Compound 18-10, 3-[(2R)-2-methyl-8-[4-(methylamino)-1-piperidyl]-2,3-dihydro-1,4-benzoxazin-4-yl]piperidine-2,6-dione], for which, under setting [3], the Kd is at most 100000 nM.

With `CC(C)(C)OC(=O)N1CC[C@H]2CN(c3cccc4c3CCN4[C@@H]3CCC(=O)NC3=O)CC[C@H]21` (single isomer, unassigned) [Compound 56-9a], the Kd under setting [1] is under 100000 nM.

In the case of `CC(C)(C)OC(=O)CN1CCC(c2cccc3c2OCCN3[C@H]2CCC(=O)NC2=O)CC1` (single isomer, unassigned) [Compound 24-3], under setting [3], the Kd was at most 100000 nM.

With `CC(C)(C)OC(=O)CC1(O)CCN(c2cccc3c2CCN3[C@H]2CCC(=O)NC2=O)CC1` (single isomer, unassigned) [Compound 38-6], the Kd under setting [1] is under 100000 nM.

As to `O=C1CCC(N2CCc3c(N4CCC(C(F)(F)CO)CC4)cccc32)C(=O)N1` (centres unmarked) [Compound 51-12, 3-[4-[4-(1,1-difluoro-2-hydroxy-ethyl)-1-piperidyl]indolin-1-yl]piperidine-2,6-dione], under setting [1], the Kd is under 100000 nM.

With `CC(C)(C)OC(=O)C1CCN(Cc2cccc3c2CCN3[C@H]2CCC(=O)NC2=O)CC1` (single isomer, unassigned) [Compound 54-6], under setting [1], the Kd is under 100000 nM.

Take `O=C1CCC(N2CCOc3c(N4CCNCC4)cccc32)C(=O)N1` (centres unmarked) [Compound 10-10, 3-(8-(piperazin-1-yl)-2H-benzo[b][1,4]oxazin-4(3H)-yl)piperidine-2,6-dione]: under setting [3], the Kd was at most 100000 nM.

On to `O=C1CCC(c2ccnc3c2OCCN3C2CCC(=O)NC2=O)CC1` (centres unmarked) [Compound 8-10, 3-(8-(4-oxocyclohexyl)-2,3-dihydro-4H-pyrido[3,2-b][1,4]oxazin-4-yl)piperidine-2,6-dione], for which, under setting [3], the Kd is at most 100000 nM.

`O=C1CC[C@H](N2CCCc3c(N4CCC(CCO)CC4)cccc32)C(=O)N1` (single isomer, unassigned) [Compound 66-4]: under setting [2], the Kd was under 1000 nM.

With `CN(C(=O)OC(C)(C)C)[C@H]1CC[C@@H](c2c(F)cc3c(c2F)CCN3[C@@H]2CCC(=O)NC2=O)CC1` (single isomer, unassigned) [Compound 55-7], the Kd under setting [1] was under 100000 nM.

As for `CNC1CCN(c2cccc3c2O[C@@H](C)CN3C2CCC(=O)NC2=O)CC1` (stereo partly drawn) [Compound 18-13, 3-[(2S)-2-methyl-8-[4-(methylamino)-1-piperidyl]-2,3-dihydro-1,4-benzoxazin-4-yl]piperidine-2,6-dione], the Kd under setting [3] is at most 100000 nM.

Turning to `CC(C)(C)OC(=O)C1CCN(Cc2cccc3c2CCN3C2CCC(=O)NC2=O)CC1` (racemic) [Compound 54-5, tert-butyl 1-[[1-(2,6-dioxo-3-piperidyl)indolin-4-yl]methyl]piperidine-4-carboxylate], under setting [1], the Kd was under 100000 nM.

As to `CC(C)(C)OC(=O)N1CC[C@H]2CN(c3cccc4c3CCN4[C@H]3CCC(=O)NC3=O)CC[C@H]21` (single isomer, unassigned) [Compound 56-8a], the Kd under setting [1] was under 100000 nM.

As for `CC(C)(C)OC(=O)N1CCN(c2cccc3c2CCCN3[C@H]2CCC(=O)NC2=O)CC1` (single isomer, unassigned) [Compound 68-3], the Kd under setting [2] was under 100000 nM.

Regarding `O=C1CCC(N2CCOc3c(C4CCC5(CCNCC5)CC4)cccc32)C(=O)N1` (centres unmarked) [Compound 20-7, 3-[8-(3-azaspiro[5.5]undecan-9-yl)-2,3-dihydro-1,4-benzoxazin-4-yl]piperidine-2,6-dione], the Kd under setting [3] was at most 100000 nM.

Consider `CC(C)(C)OC(=O)N1CCC(c2cc3c(cc2F)N([C@H]2CCC(=O)NC2=O)CC3)CC1` (single isomer, unassigned) [Compound 52-6], for which, under setting [1], the Kd is under 1000 nM.

Consider `O=C1CC[C@@H](N2CCc3c(N4CCC(CO)CC4)cccc32)C(=O)N1` (single isomer, unassigned) [Compound 53-6], for which the Kd under setting [1] is under 100000 nM.

`CC(C)(C)OC(=O)CN1CCC(c2cccc3c2CCCN3[C@@H]2CCC(=O)NC2=O)CC1` (single isomer, unassigned) [Compound 60-4]: the Kd under setting [2] is under 100000 nM.

With `CN(C(=O)OC(C)(C)C)[C@H]1CC[C@@H](c2c(F)cc3c(c2F)CCN3[C@H]2CCC(=O)NC2=O)CC1` (single isomer, unassigned) [Compound 55-6], the Kd under setting [1] was under 100000 nM.

Regarding `CN(C(=O)OC(C)(C)C)[C@H]1CC[C@H](c2c(F)cc3c(c2F)CCN3[C@@H]2CCC(=O)NC2=O)CC1` (single isomer, unassigned) [Compound 55-5], under setting [1], the Kd was under 100000 nM.

For `O=C1CCC(N2CCOc3c([C@@H]4CCNC4)cccc32)C(=O)N1` (stereo partly drawn) [Compound 14-7, 3-(8-((S)-pyrrolidin-3-yl)-2H-benzo[b][1,4]oxazin-4(3H)-yl)piperidine-2,6-dione], the Kd under setting [3] is at most 100000 nM.

`O=C(O)CN1CCC(c2cccc3c2OCC(=O)N3C2CCC(=O)NC2=O)CC1` (centres unmarked) [Compound 29-5, 2-(4-(4-(2,6-dioxopiperidin-3-yl)-3-oxo-3,4-dihydro-2H-benzo[b][1,4]oxazin-8-yl)piperidin-1-yl)acetic acid]: the Kd under setting [3] was at most 100000 nM.

Consider `CN(C(=O)OC(C)(C)C)[C@H]1CC[C@H](c2c(F)cc3c(c2F)CCN3[C@H]2CCC(=O)NC2=O)CC1` (single isomer, unassigned) [Compound 55-4], for which the Kd under setting [1] is under 100000 nM.

On to `O=C1CCC(N2CCOc3c(N4CCC(O)(C(=O)O)CC4)cccc32)C(=O)N1` (centres unmarked) [Compound 27-8, 1-[4-(2,6-dioxo-3-piperidyl)-2,3-dihydro-1,4-benzoxazin-8-yl]-4-hydroxy-piperidine-4-carboxylic acid], for which the Kd under setting [3] was at most 100000 nM.

For the compound `CC(C)(C)OC(=O)N1CCC(c2cc3c(cc2F)N([C@@H]2CCC(=O)NC2=O)CC3)CC1` (single isomer, unassigned) [Compound 52-7], the Kd under setting [1] was under 100000 nM.

Turning to `CC(C)(C)OC(=O)N1CCC(OC2CCN(c3cccc4c3CCCN4[C@H]3CCC(=O)NC3=O)CC2)CC1` (single isomer, unassigned) [Compound 67-6], the Kd under setting [2] is under 100000 nM.

As to `CN(C(=O)OC(C)(C)C)C1CCN(c2cccc3c2OCCN3[C@H]2CCC(=O)NC2=O)CC1` (single isomer, unassigned) [Compound 16-6], the Kd under setting [3] is at most 100000 nM.
